{"source": "patent US5100907A", "about": "“Hydantoin esters” (Lonza, Inc., priority 1990, dated 1992)", "key": {"[1]": {"experiment": "Dispersion stability tests", "type": "physicochemical", "method": "The dispersion stability tests were performed on the esters (I) to determine the extent each was able to disperse itself in an aqueous medium.\nThe dispersions were prepared by homogenizing a mixture of the test ester and water, after which repeated examination of the sample was effected for a period of 55 days. This test method is fully indicative of the dispersibility of these esters (I).\nThe dispersion tests were performed with the esters at 0.5% and 5.0% active levels in water, prepared by combining the test ester with distilled water, and homogenizing the mixture for one to three minutes, via a Kika-Werk Ultra-Turrax S D-45 homogenizer. The dispersions were poured into an eight ounce flint jar, capped, and periodically examined over a 55 day period."}, "Emulsion stability tests": {"experiment": "Emulsion stability tests", "type": "physicochemical", "settings": "for Classification of Emulsion: 2% ester, 7% myristyl propionate, 91% water", "method": "Emulsion stability tests were performed on the esters (I), and for comparison on the precursor esters (Ia), to determine the extent to which each stabilized a standardized solution of water and an oil, using a common procedure consisting of homogenizing a mixture containing the test ester (2%), myristyl propionate (7%), and water (91%). While two emulsifiers are normally used to prepare a cosmetic formulation, e.g. one with a high HLB and the other with a low HLB, the test method herein using only one emulsifier, i.e. the test ester, is fully indicative of the emulsifying attributes of these esters.\nThe tests were performed with emulsions (500 g), prepared by combining the test ester (10.0 g), myristyl propionate (35 g), and distilled water (455 g) in a container and homogenizing the contents for one minute, via a Kika-Werk Ultra-Turrax S D-45 homogenizer. The emulsions were poured into a one pound flint jar, capped, and periodically examined over a 55 day period."}, "[2]": {"experiment": "HLB determination (weighted average method)", "type": "physicochemical", "from_the_text": "Hydrophilic-Lipophilic Balance or HLB is a means of associating the hydrophilic and lipophilic characteristics between two surfactants. A \"weighted average\" method was used to determine the HLB of the esters (I), and by comparison of the precursor ester (Ia), in which two emulsifiers of known HLB values along with the test ester were incorporated in a mixture of mineral oil and water. Evaluation and HLB determination of each of a series of prepared emulsion samples were effected by visual inspection.\nThe HLB of the mixture \"m\" is calculated from the sum of the HLB contributions of each surfactant, \"a\", \"b\", \"c\", per Equation 2 which describes a system of oil, water, and three surfactants.\nGiven that [HLB]m, [HLB]a, and [HLB]b, are known, and the ideal amount of \"a\", \"b\", and \"c\" to prepare a perfect emulsion has been determined, then by rearrangement of Eq. 2, the HLB of \"c\" can be calculated by Equation 3.\nTo obtain the HLB of the test ester as surfactant \"c\", a series of formulations was prepared in which the known surfactant sorbitan monostearate (SMS) as \"a\" and the known surfactant POE 20 sorbitan monostearate (POE 20 SMS) as \"b\" were varied in amount (wt. %) relative to each other at a constant amount (1 wt. %) of \"c\", until an optimum emulsion was obtained. Different combinations of \"a\" and \"b\" were used to vary the HLB of \"c\", for emulsifying a 40:56 (wt. %) mixture of paraffin oil and distilled water (totaling 96 wt. %).\nTo prepare the emulsions, surfactants \"a\", \"b\", and \"c\", and the paraffin oil were combined in a 150 ml beaker and heated slowly with agitation to 70°-80° C. The value of \"X\" in each formulation was predetermined by rearranging Eq. 3 to solve for X, and then inserting into the equation various [HLB]c values for the test ester (i.e., 2, 3, 4, 5, 6 . . . ). The [HLB]c values chosen reflected a range that would likely contain the actual HLB of the test ester. Hot distilled water (70°-80° C.) was then slowly added with agitation. The total weight of all these reagents was 100 grams. The resulting emulsion was allowed to cool, with continued agitation, until the temperature dropped below 30° C.\nA series of emulsions for each test was prepared, one at a time, and then examined as a set. Each sample within the series was evaluated and graded according to the quality of the emulsion by visual examination of droplet size."}, "Staphylococcus aureus": {"tested_on": "Staphylococcus aureus", "experiment": "Antimicrobial study against Staphylococcus aureus (gram-positive bacteria)", "type": "cell-based", "settings": "methylolated C8/10 10,800 ppm, methylolated lauric 11,400 ppm, DMDMH 3,000 ppm, others 14,700 ppm", "method": "(§1) The antimicrobial properties of typical esters (I) and (Ia) were tested by minimum inhibitory concentration (MIC) tests, along with certain known substances, against […] strains of organisms: a mold, Aspergillus niger; a gram-positive bacteria, Staphylococcus aureus; and two gram-negative bacteria, Escherichia coli and Pseudomonas aeruginosa. […] These tests were used to determine any effect on biocidal activity of the varying chain length of the ester.\n(§2) The known substances, on which identical tests were also performed, included the biocide, dimethyloldimethylhydantoin or DMDMH (iv), and a series of three surfactants, i.e., the three common emulsifiers, sodium lauryl sulfate (SLS); ethylene glycol distearate (EGDS), in the form of the commercial product PEGOSPERSE 50 DS (Lonza Inc.); and polyoxyethylene 20 sorbitan monoleate (POE 20 SMO), in the form of the commercial product GLYCOSPERSE 0 20 (Lonza Inc.).\n(§3) The tests entailed contaminating a preexisting micro-colony with a known quantity (ppm, concentration) of test material. Each colony was then examined periodically over a one week period. […] A test was deemed non-efficacious when there was no decrease in colony size. In an effort to avoid any possible solvent effect, the micro-study was conducted in a totally aqueous solvent system without use of any other solvent."}, "Pseudomonas aeruginosa": {"tested_on": "Pseudomonas aeruginosa", "experiment": "Antimicrobial study against Pseudomonas aeruginosa (gram-negative bacteria)", "type": "cell-based", "settings": "methylolated C8/10 10,800 ppm, methylolated lauric 11,400 ppm, DMDMH 3,000 ppm, others 14,700 ppm", "method": "as §1, §2, §3"}, "Escherichia coli": {"tested_on": "Escherichia coli", "experiment": "Antimicrobial study against Escherichia coli (gram-negative bacteria)", "type": "cell-based", "settings": "methylolated C8/10 10,800 ppm, methylolated lauric 11,400 ppm, DMDMH 3,000 ppm, others 14,700 ppm", "method": "as §1, §2, §3"}, "Aspergillus niger": {"tested_on": "Aspergillus niger", "experiment": "Antimicrobial study against Aspergillus niger (mold)", "type": "cell-based", "settings": "methylolated C8/10 10,800 ppm, methylolated lauric 11,400 ppm, DMDMH 3,000 ppm, others 14,700 ppm", "method": "as §1, §2, §3"}}, "data": [{"molecule": "2-(3-hydroxymethyl-5,5-dimethyl-1,3-diazacyclopentane-2,4-dion-1-yl)-ethylester of coconut fatty acid [Coconut Methylolated Ester]", "values": [{"measurement": "stability of dispersions in water", "setting": "[1]", "value": "stable for weeks"}, {"measurement": "ability to stabilize emulsions", "setting": "Emulsion stability tests", "value": "the best emulsifiers tested"}, {"measurement": "duration of stabilized emulsions", "setting": "Emulsion stability tests", "value": "more than 22 days"}]}, {"molecule": "2-(5,5-dimethyl-1,3-diazacyclopentane-2,4-dion-1-yl)-ethyl ester of isostearic acid [Isostearic Non-Methylolated Ester]", "values": [{"measurement": "Average HLB", "setting": "[2]", "value": 7.0}, {"measurement": "HLB Range", "setting": "[2]", "value": "6-7"}, {"measurement": "Classification of Emulsion", "setting": "Emulsion stability tests; 7 Days after preparation", "value": "2-Phase"}, {"measurement": "Classification of Emulsion", "setting": "Emulsion stability tests; 22 Days after preparation", "value": "2-Phase"}, {"measurement": "Classification of Emulsion", "setting": "Emulsion stability tests; 55 Days after preparation", "value": "2-Phase"}]}, {"molecule": "CC(=O)OCCN1C(=O)NC(=O)C1(C)C", "note": "[Acetic Non-Methylolated Ester, 2-(5,5-dimethyl-1,3-diazacyclopentane-2,4-dion-1-yl)-ethyl ester of acetic acid]", "values": [{"measurement": "Average HLB", "setting": "[2]", "value": 7.0}, {"measurement": "HLB Range", "setting": "[2]", "value": "6-8"}, {"measurement": "Classification of Emulsion", "setting": "Emulsion stability tests; 2 Hours after preparation", "value": "2-Phase"}, {"measurement": "Classification of Emulsion", "setting": "Emulsion stability tests; 7 Days after preparation", "value": "2-Phase"}, {"measurement": "Classification of Emulsion", "setting": "Emulsion stability tests; 22 Days after preparation", "value": "2-Phase"}, {"measurement": "Classification of Emulsion", "setting": "Emulsion stability tests; 55 Days after preparation", "value": "2-Phase"}]}, {"molecule": "CCCCCCCCCCCC(=O)OCCN1C(=O)NC(=O)C1(C)C", "note": "[Non-Methylolated Lauric Ester, 2-(5,5-dimethyl-1,3-diazacyclopentane-2,4-dion-1-yl)-ethyl ester of lauric acid]", "values": [{"measurement": "Average HLB", "setting": "[2]", "value": 6.5}, {"measurement": "HLB Range", "setting": "[2]", "value": "5-7"}, {"measurement": "Colony Count", "setting": "Staphylococcus aureus; Day 0", "value": "TNC"}, {"measurement": "Colony Count", "setting": "Staphylococcus aureus; Day 1", "value": "500 × 1,000"}, {"measurement": "Colony Count", "setting": "Staphylococcus aureus; Day 2", "value": "3,000 × 1,000"}, {"measurement": "Colony Count", "setting": "Staphylococcus aureus; Day 3", "value": "TNC"}, {"measurement": "Colony Count", "setting": "Staphylococcus aureus; Day 7", "value": "30 × 1,000"}, {"measurement": "Colony Count", "setting": "Pseudomonas aeruginosa; Day 0", "value": "TNC"}, {"measurement": "Colony Count", "setting": "Pseudomonas aeruginosa; Day 1", "value": "TNC"}, {"measurement": "Colony Count", "setting": "Pseudomonas aeruginosa; Day 2", "value": "TNC"}, {"measurement": "Colony Count", "setting": "Pseudomonas aeruginosa; Day 3", "value": "250 × 1,000"}, {"measurement": "Colony Count", "setting": "Pseudomonas aeruginosa; Day 7", "value": "TNC"}, {"measurement": "Colony Count", "setting": "Escherichia coli; Day 0", "value": "TNC"}, {"measurement": "Colony Count", "setting": "Escherichia coli; Day 1", "value": "TNC"}, {"measurement": "Colony Count", "setting": "Escherichia coli; Day 2", "value": "TNC"}, {"measurement": "Colony Count", "setting": "Escherichia coli; Day 3", "value": "TNC"}, {"measurement": "Colony Count", "setting": "Escherichia coli; Day 7", "value": "TNC"}, {"measurement": "Colony Count", "setting": "Aspergillus niger; Day 0", "value": "300 × 1,000"}, {"measurement": "Colony Count", "setting": "Aspergillus niger; Day 1", "value": "200 × 1,000"}, {"measurement": "Colony Count", "setting": "Aspergillus niger; Day 2", "value": "200 × 1,000"}, {"measurement": "Colony Count", "setting": "Aspergillus niger; Day 3", "value": "220 × 1,000"}, {"measurement": "Colony Count", "setting": "Aspergillus niger; Day 7", "value": "150 × 1,000"}]}, {"molecule": "CCCCCCCC/C=C\\CCCCCCCC(=O)OCCN1C(=O)NC(=O)C1(C)C", "note": "[Oleic Non-Methylolated Ester, 2-(5,5-dimethyl-1,3-diazacyclopentane-2,4-dion-1-yl)-ethyl ester of oleic acid]", "values": [{"measurement": "Average HLB", "setting": "[2]", "value": 8.5}, {"measurement": "HLB Range", "setting": "[2]", "value": "8-9"}, {"measurement": "Classification of Emulsion", "setting": "Emulsion stability tests; 7 Days after preparation", "value": "2-Phase"}, {"measurement": "Classification of Emulsion", "setting": "Emulsion stability tests; 22 Days after preparation", "value": "2-Phase"}, {"measurement": "Classification of Emulsion", "setting": "Emulsion stability tests; 55 Days after preparation", "value": "2-Phase"}]}, {"molecule": "CCCCCCCCCCCCCCCCCC(=O)OCCN1C(=O)NC(=O)C1(C)C", "note": "[Stearic Non-Methylolated Ester, 2-(5,5-dimethyl-1,3-diazacyclopentane-2,4-dion-1-yl)-ethyl ester of stearic acid]", "values": [{"measurement": "Average HLB", "setting": "[2]", "value": 1.5}, {"measurement": "HLB Range", "setting": "[2]", "value": "1-3"}, {"measurement": "Classification of Emulsion", "setting": "Emulsion stability tests; 2 Hours after preparation", "value": "2-Phase"}, {"measurement": "Classification of Emulsion", "setting": "Emulsion stability tests; 7 Days after preparation", "value": "2-Phase"}, {"measurement": "Classification of Emulsion", "setting": "Emulsion stability tests; 22 Days after preparation", "value": "2-Phase"}, {"measurement": "Classification of Emulsion", "setting": "Emulsion stability tests; 55 Days after preparation", "value": "2-Phase"}]}, {"molecule": "mixture of the 2-(3-hydroxymethyl-5,5-dimethyl-1,3-diazacyclopentane-2,4-dion-1-yl)-ethylesters of caprylic acid and capric acid [Methylolated C8/10 Ester]", "values": [{"measurement": "ability to stabilize emulsions", "setting": "Emulsion stability tests", "value": "generally unable to stabilize an emulsion for more than two hours"}]}]}
